Experimental data published in patent publication US20100317583A1, “TREATMENT OF MELANOMA WITH ALPHA THYMOSIN PEPTIDES IN COMBINATION WITH AN ANTINEOPLASTIC HEAT SHOCK APOPTOSIS ACTIVATOR (HSAA)” (SciClone Pharmaceuticals, Inc., priority 2007, published 2010).
Where “and” joins values, the source holds several entries; their conditions need not be identical. Equal entries are not always repeated. No end group written: not given here.

Test system: murine B16 melanoma cells
Test: Anti-tumor efficacy (tumor size, tumor volume, tumor weight) in C57BL/6 mice bearing subcutaneous B16 melanoma
Format: in vivo
Conditions: for Tumor weights / PI (TW), percent inhibition of tumor weight vs vehicle: Day 17
Experimental: In this study, the anti-tumor effect of the combined treatment of thymosin alpha-1 (TA-1), Paclitaxel (Pac) and Elesclomol (Ele) was evaluated in C57BL/6 mice bearing B16 melanoma cells. The toxic effects of the dosing regimens were also monitored. A total of 60 mice were implanted subcutaneously with murine B16 cells, followed by treatment with TA-1 or Pac/Ele alone or in combination for 14 consecutive days. TA-1 was given daily via s.c., while Pac and Ele were co-i.v. administered on Day 1, 7 and 13. In total, 6 groups were used: Group 1: vehicle; Group 2: TA-1 6 mg/kg; Group 3: Pac 10 mg/kg+Ele 10 mg/kg; Group 4: Pac 30 mg/kg+Ele 30 mg/kg; Group 5: TA-1 6 mg/kg+Pac 10 mg/kg+Ele 10 mg/kg; and Group 6: TA-1 6 mg/kg+Pac 30 mg/kg+Ele 30 mg/kg. Tumor volume and body weight were measured every three days, and tumor weights were measured on Day 17 at the end of the study.
Murine B16 melanoma cells were thawed from the stock of Cell Culture Center, Institute of Basic Medical Sciences, Peking Union Medical College and Chinese Academy of Medical Sciences (PUMC & CAMS, Beijing, P. R. China). The tumor cells were adapted in C57BL/6 mice before use in the experiment (Refer to Section 4.3.1 for details on cell adaptation).
Using aseptic tissue culture procedures, one vial of B16 melanoma cells was removed from the liquid nitrogen stock, and placed into a 37° C. water bath. Gentle swirling was conducted until the content of the vial was thawed. Once thawed, the cells were immediately centrifuged with a TD5A-WS centrifuge at 1000 rpm, 20-25° C., 5 min. After centrifugation, the cells were suspended in […] normal saline (NS) and subcutaneously injected into 10 mice (0.1 mL/mouse, about 1×10^6 cells). After 7-10 days, when the tumor diameter was approximately 1 cm, the animals were euthanized with CO2 overdose and the tumors excised. The procedure was repeated with 20 mice to generate a sufficient number of B16 melanoma cells with adequate transplantability.
On the day of tumor implantation, approximately 1×10^6 cells in 0.1 mL were subcutaneously injected on the right axillary area of each mouse. The day of tumor implantation was defined as Day 0.
On Day 1, the animals were randomly assigned into different weight-matched groups, and dosing was started using the regimen according to Table 2. Briefly, TA-1 was administered once daily via subcutaneous (s.c.) injection for 14 consecutive days at a site different from that of tumor cell implantation, while Pac and Ele was administered on Days 1, 7, and 13 via an intravenous (i.v.) injection.
From Day 1 to Day 15, mortality and moribundity were checked twice daily, the body weights were recorded once every 3 days, and tumors were measured using a caliper once every 3 days. At the end of the study (Day 17), the animals were euthanized by CO2 asphyxiation, and the tumors were excised and weighed.
Based on the tumor size, the tumor volume (TV) was calculated with the formula: [TV=(Length×Width×Width)/2]. And the percent inhibition (PI) of TV (PITV) was calculated according to the equation below:
PITV(%)=(TV vehicle−TVdrug treated)/TV vehicle×100
The anti-tumor effect of the test article was further evaluated with tumor weight (TW) measured on day of necropsy (Day 17). The PI of TW was calculated using the equation below:
PITW(%)=100×(TW vehicle−TW drug treated)/TW vehicle
The calculations of PITV and PITW were performed using an Excel spreadsheet and reviewed by the Study Director and Study Monitor.
Inter-group comparison was performed in terms of tumor volume, tumor weight and body weight, using a student's t test. P values of less than 0.05 were considered to be statistically significant.

[1] = Day 3, individual animals F1-F5, M1-M5, low-dose arms: TA-1 6 mg/kg, Pac 10 + Ele 10 mg/kg
[2] = Day 3, low-dose arms: TA-1 6 mg/kg s.c. daily, Pac 10 + Ele 10 mg/kg co-i.v. Days 1, 7, 13
[3] = Day 6, individual animals F1-F5, M1-M5, low-dose arms: TA-1 6 mg/kg, Pac 10 + Ele 10 mg/kg
[4] = Day 6, low-dose arms: TA-1 6 mg/kg s.c. daily, Pac 10 + Ele 10 mg/kg co-i.v. Days 1, 7, 13
[5] = Day 9, individual animals F1-F5, M1-M5, low-dose arms: TA-1 6 mg/kg, Pac 10 + Ele 10 mg/kg
[6] = Day 9, low-dose arms: TA-1 6 mg/kg s.c. daily, Pac 10 + Ele 10 mg/kg co-i.v. Days 1, 7, 13
[7] = Day 12, low-dose arms: TA-1 6 mg/kg s.c. daily, Pac 10 + Ele 10 mg/kg co-i.v. Days 1, 7, 13
[8] = Day 15, low-dose arms: TA-1 6 mg/kg s.c. daily, Pac 10 + Ele 10 mg/kg co-i.v. Days 1, 7, 13

## thymosin alpha 1 (SDAAVDTSSEITTKDLKEKKEVVEEAEN; ends and bridges not checked; UniProt P06454 2-29, looked up) [TA-1, 28 amino acid peptide with a molecular weight of 3108; immunomodulator]
[1]
  Tumor measurements, L (length): 0.1 cm (2×) and 0.2 cm (2×)
  Tumor measurements, W (width): 0.1 cm (2×) and 0.2 cm (2×)
Day 3, individual animals F1-F5, M1-M5, low-dose arms: TA-1 6 mg/kg, Pac 10 + Ele 10 mg/kg, female mice
  Tumor volumes: 0 cm^3 (4×) and 0.0005 cm^3
Day 3, individual animals F1-F5, M1-M5, low-dose arms: TA-1 6 mg/kg, Pac 10 + Ele 10 mg/kg, male mice
  Tumor volumes: 0 cm^3 (2×) and 0.004 cm^3 (2×) and 0.0005 cm^3
[2]
  PI (TV), percent inhibition of tumor volume vs vehicle: −50.00%
  Tumor Volume (Mean ± SD): 0.0009 ± 0.0016 cm^3
[3]
  Tumor measurements, L (length): 0.3 cm and 0.2 cm (2×) and 0.1 cm
  Tumor measurements, W (width): 0.3 cm and 0.2 cm (2×) and 0.1 cm
Day 6, individual animals F1-F5, M1-M5, low-dose arms: TA-1 6 mg/kg, Pac 10 + Ele 10 mg/kg, female mice
  Tumor volumes: 0 cm^3 (4×) and 0.0135 cm^3
Day 6, individual animals F1-F5, M1-M5, low-dose arms: TA-1 6 mg/kg, Pac 10 + Ele 10 mg/kg, male mice
  Tumor volumes: 0 cm^3 (2×) and 0.004 cm^3 (2×) and 0.0005 cm^3
[4]
  PI (TV), percent inhibition of tumor volume vs vehicle: 58.49%
  Tumor Volume (Mean ± SD): 0.0022 ± 0.0043 cm^3
Day 9, animal F1
  Tumor volumes: 0.0005 cm^3
Day 9, animal F2
  Tumor volumes: 0 cm^3
Day 9, animal F3
  Tumor volumes: 0 cm^3
Day 9, animal F4
  Tumor volumes: 0 cm^3
Day 9, animal F5
  Tumor volumes: 0.0135 cm^3
Day 9, animal M1
  Tumor volumes: 0.004 cm^3
Day 9, animal M2
  Tumor volumes: 0.004 cm^3
Day 9, animal M3
  Tumor volumes: 0.004 cm^3
Day 9, animal M4
  Tumor volumes: 0 cm^3
Day 9, animal M5
  Tumor volumes: 0 cm^3
[5]
  Tumor measurements, L (length): 0.3 cm and 0.2 cm (3×) and 0.1 cm
  Tumor measurements, W (width): 0.3 cm and 0.2 cm (3×) and 0.1 cm
[6]
  PI (TV), percent inhibition of tumor volume vs vehicle: 88.26%
  Tumor Volume (Mean ± SD): 0.0026 ± 0.0043 cm^3
Day 12, animal F1
  Tumor measurements L: 0.1 cm
  Tumor measurements W: 0.1 cm
  Tumor volumes: 0.0005 cm^3
Day 12, animal F2
  Tumor measurements L: 0.2 cm
  Tumor measurements W: 0.2 cm
  Tumor volumes: 0.004 cm^3
Day 12, animal F3
  Tumor measurements L: 0.2 cm
  Tumor measurements W: 0.2 cm
  Tumor volumes: 0.004 cm^3
Day 12, animal F4
  Tumor measurements L: 0.1 cm
  Tumor measurements W: 0.1 cm
  Tumor volumes: 0.0005 cm^3
Day 12, animal F5
  Tumor measurements L: 0.3 cm
  Tumor measurements W: 0.3 cm
  Tumor volumes: 0.0135 cm^3
Day 12, animal M1
  Tumor measurements L: 0.2 cm
  Tumor measurements W: 0.2 cm
  Tumor volumes: 0.004 cm^3
Day 12, animal M2
  Tumor measurements L: 0.2 cm
  Tumor measurements W: 0.2 cm
  Tumor volumes: 0.004 cm^3
Day 12, animal M3
  Tumor measurements L: 0.2 cm
  Tumor measurements W: 0.2 cm
  Tumor volumes: 0.004 cm^3
Day 12, animal M4
  Tumor measurements L: 0.2 cm
  Tumor measurements W: 0.2 cm
  Tumor volumes: 0.004 cm^3
Day 12, animal M5
  Tumor measurements L: 0.1 cm
  Tumor measurements W: 0.1 cm
  Tumor volumes: 0.0005 cm^3
[7]
  PI (TV), percent inhibition of tumor volume vs vehicle: 96.28%
  Tumor Volume (Mean ± SD): 0.0039 ± 0.0038 cm^3
Day 15, animal F1
  Tumor measurements L: 0.3 cm
  Tumor measurements W: 0.3 cm
  Tumor volumes: 0.0135 cm^3
Day 15, animal F2
  Tumor measurements L: 0.3 cm
  Tumor measurements W: 0.3 cm
  Tumor volumes: 0.0135 cm^3
Day 15, animal F3
  Tumor measurements L: 0.5 cm
  Tumor measurements W: 0.5 cm
  Tumor volumes: 0.0625 cm^3
Day 15, animal F4
  Tumor measurements L: 0.3 cm
  Tumor measurements W: 0.3 cm
  Tumor volumes: 0.0135 cm^3
Day 15, animal F5
  Tumor measurements L: 0.6 cm
  Tumor measurements W: 0.6 cm
  Tumor volumes: 0.108 cm^3
Day 15, animal M1
  Tumor measurements L: 0.5 cm
  Tumor measurements W: 0.5 cm
  Tumor volumes: 0.0625 cm^3
Day 15, animal M2
  Tumor measurements L: 0.4 cm
  Tumor measurements W: 0.4 cm
  Tumor volumes: 0.032 cm^3
Day 15, animal M3
  Tumor measurements L: 0.6 cm
  Tumor measurements W: 0.6 cm
  Tumor volumes: 0.108 cm^3
Day 15, animal M4
  Tumor measurements L: 0.5 cm
  Tumor measurements W: 0.5 cm
  Tumor volumes: 0.0625 cm^3
Day 15, animal M5
  Tumor measurements L: 0.5 cm
  Tumor measurements W: 0.5 cm
  Tumor volumes: 0.0625 cm^3
[8]
  PI (TV), percent inhibition of tumor volume vs vehicle: 85.60%
  Tumor Volume (Mean ± SD): 0.0539 ± 0.0358 cm^3
Day 17 (necropsy), low-dose arms: TA-1 6 mg/kg s.c. daily, Pac 10 + Ele 10 mg/kg co-i.v. Days 1, 7, 13
  Tumor Weight (Mean ± SD): 0.88 ± 0.34 g
Animal F1
  Tumor weights: 0.64 g
Animal F2
  Tumor weights: 0.5 g
Animal F3
  Tumor weights: 1.2 g
Animal F4
  Tumor weights: 0.62 g
Animal F5
  Tumor weights: 1.45 g
Animal M1
  Tumor weights: 0.69 g
Animal M2
  Tumor weights: 0.56 g
Animal M3
  Tumor weights: 1.36 g
Animal M4
  Tumor weights: 0.92 g
Animal M5
  Tumor weights: 0.89 g
low-dose arms: TA-1 6 mg/kg s.c. daily, Pac 10 + Ele 10 mg/kg co-i.v. Days 1, 7, 13
  PI (TW), percent inhibition of tumor weight vs vehicle: 55.67%
low-dose arms: TA-1 6 mg/kg s.c. daily, Pac 10 + Ele 10 mg/kg co-i.v. Days 1, 7, 13, listed as Group 2
  PI (TW), percent inhibition of tumor weight vs vehicle: 55.67%
Throughout the course of the study, TA-1 6 mg/kg s.c. daily
  mean tumor volume reduced in comparison to that of the vehicle control group: more than 50%
